In patent US20150065440A1 (Progen Pharmaceuticals Limited, priority 2007, published 2015):
Where two headings read alike, the source gives them in different places.

What was measured:
[1] = biological target: FGF-1 (Homo sapiens, UniProt P05230); experiment: Growth factor binding assay (SPR solution affinity), FGF-1; settings: SPR, HBS-EP buffer, 25° C.; read-out: Kd FGF-1
[2] = biological target: T1, VEGF (Homo sapiens, UniProt P15692); experiment: Growth factor binding assay (SPR solution affinity), VEGF; settings: HBS-EP buffer, 25° C.
T1 sequence (P15692 207-395): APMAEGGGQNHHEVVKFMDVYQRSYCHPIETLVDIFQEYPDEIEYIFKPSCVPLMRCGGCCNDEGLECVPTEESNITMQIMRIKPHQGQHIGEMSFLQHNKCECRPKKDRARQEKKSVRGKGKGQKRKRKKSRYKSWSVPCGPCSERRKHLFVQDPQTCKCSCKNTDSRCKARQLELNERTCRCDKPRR
Procedure, shortened: (§1)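 Kd measured by SPR solution affinity: fixed growth factor with varying ligand competing for heparin-coated sensorchip, 25 °C. Buffer HBS-EP pH 7.4 (150 mM NaCl) for FGF-1 and VEGF; FGF-2 with 0.3 M NaCl. Duplicate values averaged.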

[3] = test system: HSV-1; experiment: Viral plaque number-reduction assay, HSV-1; settings: GMK AH1 cells
Experimental: (§2) African green monkey kidney (GMK AH1) cells^46 were cultured in Eagle's minimum essential medium (EMEM) supplemented with 2% calf serum, 0.05% Primaton RL substance (Kraft Inc., Norwich, USA) and antibiotics. Human epidermoid carcinoma (HEp-2) cells were cultured in Dulbecco's modified EMEM (DMEM) supplemented with 10% fetal calf serum and antibiotics. […] The RSV strain A-2^50 was used. The RSV stock was prepared as described by Hallak et al.^51 and stored at −70° C. in the presence of 40% sucrose^52.
(§3) The viral infectivity (the plaque number-reduction) assay and the plaque size-reduction assay were carried out as described previously^17. […] Subsequently, the cells were washed with 2 mL of EMEM and overlaid with 1% methylcellulose solution in EMEM. The plaques were visualized by staining with crystal violet solution after 2 (HSV-2) or 3 (HSV-1) days of incubation at 37° C. […] When the compounds were screened for anti-HSV or anti-RSV activity, mixtures of 200 PFU of the virus and the test compound (100 μg/mL) in serum-free EMEM were incubated for 10 min at room temperature before addition to cells and during the entire period of viral infection of cells and the development of viral plaques. In the plaque size-reduction assay, the compounds were added to cells (in methylcellulose overlay medium) after 2 h period of virus infection of cells in the absence of the inhibitor. After 2-3 days of incubation at 37° C., the viral plaques were visualized by staining the cells with 1% solution of crystal violet. For each compound tested, the images of twenty neighboring plaques were captured using a Leica DC300 digital camera attached to a Leitz-Wetzlar Diavert microscope. The area of each plaque was determined using IM500 image software (Leica). Similar protocols were used for RSV, except that the assays were performed in HEp-2 cells and DMEM supplemented with 2% heat-inactivated fetal calf serum was used instead of EMEM.

[4] = test system: pooled normal human plasma; experiment: Anticoagulant activity, APTT; settings: 0.1 mg/mL in normal pooled human plasma
Experimental: APTT measurements were performed on a STAGO STA-Compact Coagulation Analyser using standard protocols according to the manufacturer's instructions. Unfractionated heparin (UFH) was used as a control.

[5] = test system: RSV; experiment: Viral plaque number-reduction assay, RSV; settings: for Selective index CC50/IC50 RSV: HEp-2 cells; for IC50: human respiratory syncytial virus, read-out: RSV IC50; for RSV IC50: viral plaques (Table 9)
Experimental: as §2, §3

[6] = test system: normal pooled human plasma; experiment: Anticoagulant activity, Heptest; settings: 0.1 mg/mL in normal pooled human plasma
[7] = biological target: FGF-2 (Homo sapiens, UniProt P09038); experiment: Growth factor binding assay (SPR solution affinity), FGF-2
Sequence of FGF-2 (P09038 143-288, species assumed): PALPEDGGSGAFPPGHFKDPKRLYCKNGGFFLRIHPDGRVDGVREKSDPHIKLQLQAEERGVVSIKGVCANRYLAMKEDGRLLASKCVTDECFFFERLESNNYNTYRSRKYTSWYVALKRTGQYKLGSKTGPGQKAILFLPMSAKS
Procedure, shortened: as §1

[8] = biological target: T2, recombinant human heparanase (Homo sapiens, UniProt Q9Y251); experiment: Heparanase inhibition assay (fondaparinux cleavage, WST-1); settings: read-out: Ki Heparanase; IC50 converted into Ki; fondaparinux 100 μM, pH 5.0
T2 sequence (Q9Y251 158-543 limits assumed): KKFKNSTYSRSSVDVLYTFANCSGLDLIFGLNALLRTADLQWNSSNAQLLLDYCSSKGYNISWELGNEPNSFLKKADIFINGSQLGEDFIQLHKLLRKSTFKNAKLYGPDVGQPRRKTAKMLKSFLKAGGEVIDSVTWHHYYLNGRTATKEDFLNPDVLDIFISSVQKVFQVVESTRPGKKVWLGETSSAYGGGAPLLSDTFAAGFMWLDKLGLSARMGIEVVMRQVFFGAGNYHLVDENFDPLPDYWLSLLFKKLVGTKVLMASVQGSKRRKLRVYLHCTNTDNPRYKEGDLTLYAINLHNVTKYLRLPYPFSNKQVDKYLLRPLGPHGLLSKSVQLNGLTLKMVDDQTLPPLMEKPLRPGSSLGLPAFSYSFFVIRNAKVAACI
T2 sequence (Q9Y251 36-109 limits assumed): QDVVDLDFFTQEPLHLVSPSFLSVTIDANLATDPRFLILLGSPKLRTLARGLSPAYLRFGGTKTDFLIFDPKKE
Experimental: In the presence of an inhibitor the catalytic activity of heparanase is reduced, and the amount of disaccharide produced and the optical density of the solution are both decreased. The percent inhibition and IC50 of the inhibitor are determined from measurement of the optical density (OD) over a range of inhibitor concentrations.
Assays were carried out in 40 mM sodium acetate buffer, pH 5.0, as follows. […] A blue colour was developed by incubation of the plates at 60° C. for 60 min. […] The IC50 value for each compound was evaluated and converted into a Ki (inhibition constant) using the expression

[9] = test system: HSV-2; experiment: Viral plaque number-reduction assay, HSV-2; settings: for Selective index CC50/IC50 HSV-2: GMK AH1 cells; for IC50: Human alphaherpesvirus 2, read-out: HSV-2 IC50; for HSV-2 IC50: viral plaques in GMK AH1 cells (Table 9)
Procedure, shortened: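 200 PFU virus premixed 10 min with compound (100 μg/mL screen) and kept throughout infection. HSV plaques in GMK AH1 cells, RSV (strain A-2) in HEp-2 cells. Methylcellulose overlay, 37 °C, crystal violet staining after 2 days (HSV-2) or 3 days (HSV-1); plaque numbers counted.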

[10] = SPR, HBS-EP buffer containing 0.3 M NaCl, 25° C.; read-out: Kd FGF-2

Sequence of FGF-1 (P05230 whole entry, species assumed): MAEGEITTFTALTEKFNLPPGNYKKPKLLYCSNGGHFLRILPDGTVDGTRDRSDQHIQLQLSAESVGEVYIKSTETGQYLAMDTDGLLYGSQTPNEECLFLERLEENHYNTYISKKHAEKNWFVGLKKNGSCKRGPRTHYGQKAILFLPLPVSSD

## CCCCCCCCCCCCOC1OC(COS(=O)(=O)O)C(OS(=O)(=O)O)C(OS(=O)(=O)O)C1OC1OC(COS(=O)(=O)O)C(OS(=O)(=O)O)C(OC2OC(COS(=O)(=O)O)C(OS(=O)(=O)O)C(OC3OC(COS(=O)(=O)O)C(OS(=O)(=O)O)C(OC4OC(COS(=O)(=O)O)C(OS(=O)(=O)O)C(OS(=O)(=O)O)C4OS(=O)(=O)O)C3OS(=O)(=O)O)C2OS(=O)(=O)O)C1OS(=O)(=O)O [Compound 4, Dodecyl 2,3,4,6-tetra-O-sodium sulfonato-α-D-mannopyranosyl-(1→3)-2,4,6-tri-O-sodium sulfonato-α-D-mannopyranosyl-(1→3)-2,4,6-tri-O-sodium sulfonato-α-D-mannopyranosyl-(1→3)-2,4,6-tri-O-sodium sulfonato-α-D-mannopyranosyl-(1→2)-3,4,6-tri-O-sodium sulfonato-α-D-mannopyranoside]
[1]
  Kd: 6 ± 3 nM
[2]
  Kd: 12 ± 3 nM
[3]
  Selective index CC50/IC50 HSV-1: > 190
[4]
  APTT: 125.9 s
[5]
  Selective index CC50/IC50 RSV: > 87
[6]
  Heptest: 64.2 s
[7]; [10]
  Kd: 480 ± 70 nM
[8]
  Ki: 4.2 ± 0.5 nM
[9]
  Selective index CC50/IC50 HSV-2: > 444

## CC(C)CCCC(C)C1CCC2C3CCC4CC(OC5OC(COS(=O)(=O)O)C(OS(=O)(=O)O)C(OS(=O)(=O)O)C5OC5OC(COS(=O)(=O)O)C(OS(=O)(=O)O)C(OC6OC(COS(=O)(=O)O)C(OS(=O)(=O)O)C(OC7OC(COS(=O)(=O)O)C(OS(=O)(=O)O)C(OS(=O)(=O)O)C7OS(=O)(=O)O)C6OS(=O)(=O)O)C5OS(=O)(=O)O)CCC4(C)C3CCC12C [Compound 20, 3β-Cholestanyl 2,3,4,6-tetra-O-sodium sulfonato-α-D-mannopyranosyl-(1→3)-2,4,6-tri-O-sodium sulfonato-α-D-mannopyranosyl-(1→3)-2,4,6-tri-O-sodium sulfonato-α-D-mannopyranosyl-(1→2)-3,4,6-tri-O-sodium sulfonato-α-D-mannopyranoside]
[1]
  Kd: 0.6 ± 0.5 nM
[2]
  Kd: 22 ± 6 nM
[3]
  Selective index CC50/IC50 HSV-1: 52
[4]
  APTT: 94.0 s
[5]
  Selective index CC50/IC50 RSV: 66
[6]
  Heptest: 28.0 s
[7]; read-out: Kd FGF-2; SPR, HBS-EP buffer containing 0.3 M NaCl, 25° C.
  Kd: 160 ± 40 nM
[8]
  Ki: 5.8 ± 1.5 nM
[9]
  Selective index CC50/IC50 HSV-2: 100

## CC(C)CCC[C@@H](C)[C@H]1CC[C@H]2[C@@H]3CC[C@H]4C[C@@H](O[C@H]5O[C@H](COS(=O)(=O)O)[C@@H](OS(=O)(=O)O)[C@H](OS(=O)(=O)O)[C@@H]5O[C@H]5O[C@H](COS(=O)(=O)O)[C@@H](OS(=O)(=O)O)[C@H](OS(=O)(=O)O)[C@@H]5OS(=O)(=O)O)CC[C@]4(C)[C@H]3CC[C@]12C [Compound 33, 3β-Cholestanyl 2,3,4,6-tetra-O-sodium sulfonato-α-D-mannopyranosyl-(1→2)-3,4,6-tri-O-sodium sulfonato-α-D-mannopyranoside]
[1]
  Kd: 270 ± 30 nM
[2]
  Kd: 1300 ± 300 nM
[4]
  APTT: 40.6 s
[5]
  IC50: 1.8 µg/mL
[6]
  Heptest: 25.5 s
[7]; [10]
  Kd: 1570 ± 150 nM
[8]
  Ki: 22.3 ± 1.6 nM
[9]
  IC50: 0.7 µg/mL

## CC(C)CCC[C@@H](C)[C@H]1CC[C@H]2[C@@H]3CCC4CC(O[C@H]5O[C@H](COS(=O)(=O)[O-])[C@@H](OS(=O)(=O)[O-])[C@H](O[C@H]6O[C@H](COS(=O)(=O)[O-])[C@@H](OS(=O)(=O)[O-])[C@H](O[C@H]7O[C@H](COS(=O)(=O)[O-])[C@@H](OS(=O)(=O)[O-])[C@H](OS(=O)(=O)[O-])[C@@H]7OS(=O)(=O)[O-])[C@@H]6OS(=O)(=O)[O-])[C@@H]5OS(=O)(=O)[O-])CC[C@]4(C)[C@H]3CC[C@]12C.[Na+].[Na+].[Na+].[Na+].[Na+].[Na+].[Na+].[Na+].[Na+].[Na+] (stereo partly drawn) [Compound 56, 3′-Cholestanyl 2,3,4,6-tetra-O-sodium sulfonato-α-D-mannopyranosyl-(1→3)-2,4,6-tri-O-sodium sulfonato-α-D-mannopyranosyl-(1→3)-3,4,6-tri-O-sodium sulfonato-α-D-mannopyranoside]
[1]
  Kd: 16 ± 7 nM
[2]
  Kd: 90 ± 30 nM
[4]
  APTT: 58.5 s
[5]
  RSV IC50: 0.45 µg/mL
[6]
  Heptest: 24.2 s
[7]; [10]
  Kd: 490 ± 40 nM
[8]
  Ki: 10.5 ± 1.7 nM
[9]
  HSV-2 IC50: 0.3 µg/mL

## CC(C)CCC[C@@H](C)[C@H]1CC[C@H]2[C@@H]3CCC4C[C@@H](OCc5cn(CCCO[C@H]6O[C@H](COS(=O)(=O)[O-])[C@@H](OS(=O)(=O)[O-])[C@H](O[C@H]7O[C@H](COS(=O)(=O)[O-])[C@@H](OS(=O)(=O)[O-])[C@H](O[C@H]8O[C@H](COS(=O)(=O)[O-])[C@@H](OS(=O)(=O)[O-])[C@H](OS(=O)(=O)[O-])[C@@H]8OS(=O)(=O)[O-])[C@@H]7OS(=O)(=O)[O-])[C@@H]6OS(=O)(=O)[O-])nn5)CC[C@]4(C)[C@H]3CC[C@]12C.[Na+].[Na+].[Na+].[Na+].[Na+].[Na+].[Na+].[Na+].[Na+].[Na+] (stereo partly drawn) [Compound 60, 3-{4-(Cholestan-3β-yl-oxymethyl)-[1,2,3]triazol-1-yl}propyl 2,3,4,6-tetra-O-sodium sulfonato-α-D-mannopyranosyl-(1→3)-2,4,6-tri-O-sodium sulfonato-α-D-mannopyranosyl-(1→3)-3,4,6-tri-O-sodium sulfonato-α-D-mannopyranoside]
[1]
  Kd: 14.3 ± 3 nM
[2]
  Kd: 260 ± 130 nM
[4]
  APTT: 71.4 s
[5]
  RSV IC50: 0.39 µg/mL
[6]
  Heptest: 26.4 s
[7]; [10]
  Kd: 474 ± 1.4 nM
[8]
  Ki: 8.4 ± 2.6 nM
[9]
  HSV-2 IC50: 0.24 µg/mL

## CCCCCCCCCCCCCCCCCC(=O)NCCCO[C@@H]1O[C@H](COS(=O)(=O)[O-])[C@@H](O[C@H]2O[C@H](COS(=O)(=O)[O-])[C@@H](O[C@H]3O[C@H](COS(=O)(=O)[O-])[C@@H](O[C@H]4O[C@H](COS(=O)(=O)[O-])[C@@H](OS(=O)(=O)[O-])[C@H](OS(=O)(=O)[O-])[C@H]4OS(=O)(=O)[O-])[C@H](OS(=O)(=O)[O-])[C@H]3OS(=O)(=O)[O-])[C@H](OS(=O)(=O)[O-])[C@H]2OS(=O)(=O)[O-])[C@H](OS(=O)(=O)[O-])[C@H]1OS(=O)(=O)[O-].[Na+].[Na+].[Na+].[Na+].[Na+].[Na+].[Na+].[Na+].[Na+].[Na+].[Na+].[Na+].[Na+] [Compound 128, 3-Stearamidopropyl 2,3,4,6-tetra-O-sulfo-α-D-glucopyranosyl-(1→4)-2,3,6-tri-O-sulfo-α-D-glucopyranosyl-(1→4)-2,3,6-tri-O-sulfo-α-D-glucopyranosyl-(1→4)-2,3,6-tri-O-sulfo-β-D-glucopyranoside, tridecasodium salt]
[1]
  Kd: 4.94 ± 0.08 nM
[2]
  Kd: 14 ± 4 nM
[4]
  APTT: 65.8 s
[5]
  IC50: 1.4 µg/mL
[6]
  Heptest: 32.2 s
[7]; [10]
  Kd: 311 ± 25 nM
[8]
  Ki: 9.1 ± 0.3 nM
[9]
  IC50: 1 µg/mL
